Reference: patent publication US11813275B2, “Pharmaceutical composition, methods for treating and uses thereof” (Boehringer Ingelheim International GmbH, priority 2013, dated 2023)
“Also recorded” adds a separate entry of the source.

What was measured:
NADPH oxidase = NADPH oxidase activity in cardiac tissue; type: in vivo, Wistar rats; details: STZ diabetic rats, 7 weeks of treatment
Method: (§1) Type I diabetes in Wistar rats (8 weeks old, 250-300 g) are induced by a single i.v. injection of STZ (60 mg/kg). The blood glucose level is measured 3 days after STZ injection (to test whether diabetes was induced) and on the day of sacrifice. One week after injection empagliflozin (SGLT2-i) was administered with drinking water for additional 7 weeks (10 and 30 mg/kg/d p.o.).

[1] = system: superoxide formation in aortic vessels; assay: DHE staining of aortic cryosections (vascular superoxide formation); type: in vivo, Wistar rats; details: STZ diabetic rats, 7 weeks of treatment
Method: as §1

patients with T1D = assay: Blood pressure, arterial stiffness, HRV and adrenergic mediators in normotensive T1D patients under clamped euglycemia and hyperglycemia; type: in vivo, human
Method: Blood pressure, arterial stiffness, heart rate variability (HRV) and circulating adrenergic mediators were measured during clamped euglycemia and hyperglycemia in 40 normotensive patients with T1D. Studies were repeated after 8 weeks of empagliflozin (25 mg daily).
Augmentation index (Alx) for the radial and carotid arteries as well as a derived aortic Alx and carotid, radial and femoral pulse wave velocities (PWV) are measured for assessment of arterial stiffness using a SphygmoCor® System (AtCor Medical Inc., Itasca, Ill.).

[2] = system: leukocyte-derived reactive oxygen species (ROS) in blood; assay: PDBu/zymosan A-stimulated chemiluminescence, oxidative burst in blood; type: in vivo, Wistar rats; details: PDBu or zymosan A stimulation; STZ diabetic rats, 7 weeks, low (10 mg/kg) or high (30 mg/kg) dose
Method: as §1
FIGS. 3-9: Quantification of reactive oxygen species of (ROS) from leukocyte upon stimulation with zymosan A (ZymA). After 7 weeks of treatment, ROS production in blood is reduced either with the low or high dose of empagliflozin to level close to none diabetic animal.

[3] = Serum levels of insulin and interferon-gamma in STZ diabetic rats; type: in vivo, Wistar rats; details: 7 weeks of treatment
Method: as §1

[4] = system: STZ-induced diabetes mellitus (Type I) in rat; assay: Blood glucose and weight gain in STZ-induced type I diabetic rats; type: in vivo, Wistar rats; details: 10 and 30 mg/kg/d p.o. in drinking water for 7 weeks
Method: as §1

aortic wall = assay: Aortic wall thickness and collagen content by sirius red staining; type: in vivo, Wistar rats; details: STZ diabetic rats
Method: Aortic wall thickness and collagen content were also measured microscopically after sirius red staining. Aortic segments were fixed in parafomaldehyde (4%) and paraffin-embedded. Sirius red staining for vascular fibrosis was performed with paraffin-embedded samples of aortic tissue upon de-paraffination. Afterwards the nuclei were prestained with hemalum. Then samples were stained for 1 hour in 0.1% with Sirius red solution containing saturated picric acid (1.2%). Finally, tissue samples were dehydrated with 70%, 96% and 100% isopropanol and coverslipped with a solution of polymers in xylene. 60-70 measurements were made per sample, n=6-7 animals/groups.
FIGS. 16A and 16B: Microscopic determination of aortic wall thickness and collagen content by sirius red staining of aortic paraffinated sections. Quantification (FIG. 16A) and representative microscope images (FIG. 16B).

isolated aortic rings = assay: Isometric tension recordings of isolated aortic rings (vasorelaxation); type: in vivo, Wistar rats
Method: as §1
FIG. 2: A: Endothelial dependant vasorelaxation. […] B: Endothelial independent vasorelaxation obtain with glyceryl trinitrate (GTN) a NO donor.

ALDH-2 = assay: Liver ALDH-2 activity; type: in vivo, Wistar rats; details: STZ diabetic rats, 7 weeks of treatment
Method: as §1

SMILES: OC[C@H]1O[C@@H](c2ccc(Cl)c(Cc3ccc(O[C@H]4CCOC4)cc3)c2)[C@H](O)[C@@H](O)[C@@H]1O [empagliflozin, 1-chloro-4-(β-D-glucopyranos-1-yl)-2-[4-((S)-tetrahydrofuran-3-yloxy)-benzyl]-benzene]
- NADPH oxidase activity in the cardiac tissue (NADPH oxidase): diminished
- oxidative stress / superoxide formation in aortic vessels [1]: reduced oxidative stress
- carotid-radial pulse wave velocity (patients with T1D; both glycemic conditions, 8 weeks of 25 mg daily, p≤0.0001): decreased significantly
- systolic blood pressure (patients with T1D; clamped euglycemia, after 8 weeks of 25 mg daily, before treatment 111±9, p=0.0187): 109±9 mmHg
- augmentation index, aortic (derived) (patients with T1D; clamped euglycemia, after 8 weeks of 25 mg daily, before treatment +0.1±13.4, p<0.0001): −6.2±14.3%
- augmentation index, carotid (patients with T1D; clamped euglycemia, after 8 weeks of 25 mg daily, before treatment +1.3±17.0, p<0.0001): −5.7±17.0%
- augmentation index, radial (patients with T1D; clamped euglycemia, after 8 weeks of 25 mg daily, before treatment −52±16, p<0.0001): −57±17%
- blood pressure effects (patients with T1D; clamped hyperglycemia, 8 weeks of 25 mg daily): not significant
- carotid-femoral pulse wave velocity (patients with T1D; clamped hyperglycemia, after 8 weeks of 25 mg daily, before treatment 5.7±1.1, p=0.0017): 5.2±0.9 m/s
- arterial stiffness (overall conclusion) (patients with T1D; patients with uncomplicated T1D, 8 weeks of 25 mg daily): reduces arterial stiffness
- oxidative stress in blood / ROS production from leukocytes [2]: reduced oxidative stress
- insulin level ([3]; STZ diabetic rats): restore insulin level
- interferon γ (marker of inflammation) ([3]; elevation in STZ diabetic rats): highly diminished or suppressed
- blood glucose levels [4]: distinct reduction
- aortic collagen content (aortic wall): normalized
- aortic wall thickness (aortic wall): normalized
- endothelial independent vasorelaxation with GTN: effect on smooth muscle cells (isolated aortic rings; isolated aortic rings after 7 weeks of treatment, glyceryl trinitrate as NO donor): absence of deleterious effect
- endothelial function (endothelial dependent vasorelaxation) (isolated aortic rings; isolated aortic rings of STZ diabetic rats after 7 weeks of treatment): normalization of endothelial function; also recorded: improvement of endothelial function
- ALDH-2 activity (liver) (ALDH-2): partly restored
